From patent US8476265B2, “Compounds-801” (AstraZeneca AB, priority 2010, dated 2013)

Experiments:
Adrenergic β2 [1] = target: T1, Adrenergic β2 (Homo sapiens, UniProt P07550); experiment: Adrenergic β2 mediated cAMP production in H292 cells (AlphaScreen), concentration response; type: cell-based; conditions: for EC50: 60 min, 300 μM rolipram, read-out: β2 pEC50 (converted); for β2 Intrinsic Activity: fraction relative to the maximum activity determined for formoterol
T1 construct: Adherent H292 cells are removed from tissue culture flasks by treatment with Accutase™ cell detachment solution; endogenous in cells; host or cells: H292 cells
How it was run: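 H292 cells seeded overnight, pretreated 10 min with rolipram (300 μM final), then exposed to compounds 60 min at room temperature in HBSS/10 mM HEPES pH 7.4/5 mM glucose, 1% DMSO. Lysate cAMP quantified by AlphaScreen against a standard curve; four-parameter fit gives pEC50 and intrinsic activity relative to formoterol maximum.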

[2] = target: T2, human muscarinic acetylcholine M3 receptor (Homo sapiens, UniProt P20309); experiment: Muscarinic 3 receptor binding assay ([3H]NMS competition, SPA), pIC50; conditions: [3H]NMS 0.1 nM, CHO-K1 cell membranes expressing human M3 receptor
T2 construct: expressed in transfected cells; host or cells: CHO-K1 (Chinese Hamster Ovary) cell membranes
How it was run: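 Competition of [3H]NMS (0.1 nM, quarter Kd) binding to CHO-K1 membranes expressing human M3, SPA format, in 20 mM HEPES pH 7.4, 5 mM MgCl2, 0.1% BSA, 1% DMSO. Incubated 16 h at room temperature; non-specific binding with 1 μM atropine; pIC50 from specific binding.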

Adrenergic β2 [3] = target: T1, Adrenergic β2; experiment: Adrenergic β2 mediated cAMP production in H292 cells, single concentration 1 μM; type: cell-based; conditions: NCI-H292, 1 μM compound, cAMP as percentage of the maximum response generated by 1E-07M formoterol, read-out: β2 % effect @1 uM
How it was run: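 H292 cells pretreated with rolipram (300 μM final) 10 min, then compound at 1 μM final, 1% DMSO, 60 min at room temperature in HBSS/10 mM HEPES pH 7.4/5 mM glucose. Lysate cAMP quantified by AlphaScreen against a standard curve, as % of maximal response to 1E-07M formoterol.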

[4] = target: T2, human muscarinic acetylcholine M3 receptor; experiment: Muscarinic 3 receptor binding assay ([3H]NMS competition, SPA), single concentration 1 μM; conditions: 1 μM compound; % inhibition specific [3H]-NMS binding
How it was run: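 CHO-K1 membranes expressing human M3 on SPA beads, competition with 0.1 nM [3H]NMS (quarter Kd) in 20 mM HEPES pH 7.4, 5 mM MgCl2, 0.1% BSA, 1% DMSO; compound at 1 μM. 16 h at room temperature. Value is % inhibition of specific binding, non-specific defined with 1 μM atropine.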

T2 sequence (P20309 whole entry): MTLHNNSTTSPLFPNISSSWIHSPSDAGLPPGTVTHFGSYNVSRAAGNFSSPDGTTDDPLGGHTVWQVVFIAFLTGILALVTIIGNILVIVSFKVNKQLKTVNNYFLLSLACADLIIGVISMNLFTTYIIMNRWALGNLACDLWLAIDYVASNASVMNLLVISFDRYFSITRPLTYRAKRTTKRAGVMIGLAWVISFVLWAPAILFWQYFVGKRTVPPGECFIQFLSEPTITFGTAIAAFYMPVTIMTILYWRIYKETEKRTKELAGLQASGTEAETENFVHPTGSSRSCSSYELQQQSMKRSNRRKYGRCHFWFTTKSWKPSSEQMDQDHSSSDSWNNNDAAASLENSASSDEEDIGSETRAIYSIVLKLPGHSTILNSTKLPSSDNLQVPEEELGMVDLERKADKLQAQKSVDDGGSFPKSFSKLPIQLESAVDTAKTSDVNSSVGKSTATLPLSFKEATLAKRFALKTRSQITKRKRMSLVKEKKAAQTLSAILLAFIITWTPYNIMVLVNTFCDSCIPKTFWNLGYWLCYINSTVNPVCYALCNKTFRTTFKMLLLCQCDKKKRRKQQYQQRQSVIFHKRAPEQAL
T1 sequence (P07550 whole entry): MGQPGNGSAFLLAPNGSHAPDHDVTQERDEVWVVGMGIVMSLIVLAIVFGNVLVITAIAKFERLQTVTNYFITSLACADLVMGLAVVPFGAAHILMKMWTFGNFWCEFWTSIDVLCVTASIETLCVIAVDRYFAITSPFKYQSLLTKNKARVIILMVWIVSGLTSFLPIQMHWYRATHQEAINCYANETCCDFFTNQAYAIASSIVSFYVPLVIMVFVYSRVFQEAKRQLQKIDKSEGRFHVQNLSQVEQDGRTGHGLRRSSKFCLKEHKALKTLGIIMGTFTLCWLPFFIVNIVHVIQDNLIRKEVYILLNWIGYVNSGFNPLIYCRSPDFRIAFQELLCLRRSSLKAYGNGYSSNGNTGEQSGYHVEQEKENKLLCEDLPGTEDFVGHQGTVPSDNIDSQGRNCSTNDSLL

| SMILES | EC50 (Adrenergic β2 [1]) | β2 Intrinsic Activity (Adrenergic β2 [1]) | IC50 [2] | percent of formoterol maximum response at 1 µM (Adrenergic β2 [3]) | inhibition at 1 µM [4] |
| --- | --- | --- | --- | --- | --- |
| CC(C)c1cc(C(=O)N2CCOC3(CCN(Cc4cccc(CCOCCC(=O)N(CCNCCc5ccc(O)c6c5OCC(=O)N6)C5CCCCC5)c4)CC3)C2)no1 [Example 147, N-Cyclohexyl-N-(2-(2-(5-hydroxy-3-oxo-3,4-dihydro-2H-benzo[b][1,4]oxazin-8-yl)ethylamino)ethyl)-3-(3-((4-(5-isopropylisoxazole-3-carbonyl)-1-oxa-4,9-diazaspiro[5.5]undecan-9-yl)methyl)phenethoxy)propanamide] | 158 nM | 1.0 | 1.58 nM | 107% | 99% |
| O=C1COc2c(CCNCCN(C(=O)CCOCCc3cccc(CN4CCC5(CC4)CN(C(=O)c4cnc6ccccc6n4)CCO5)c3)C3CCCCC3)ccc(O)c2N1 [Example 119, N-Cyclohexyl-N-(2-(2-(5-hydroxy-3-oxo-3,4-dihydro-2H-benzo[b][1,4]oxazin-8-yl)ethylamino)ethyl)-3-(3-((4-(quinoxaline-2-carbonyl)-1-oxa-4,9-diazaspiro[5.5]undecan-9-yl)methyl)phenethoxy)propanamide] | 158 nM | >0.9 | 2 nM | 84% | 100% |
| O=C1COc2c(CCNCCN(C(=O)CCOCCc3cccc(CN4CCC5(CC4)CN(C(=O)c4cc6ccccn6n4)CCO5)c3)C3CCCCC3)ccc(O)c2N1 [Example 146, N-Cyclohexyl-N-(2-(2-(5-hydroxy-3-oxo-3,4-dihydro-2H-benzo[b][1,4]oxazin-8-yl)ethylamino)ethyl)-3-(3-((4-(pyrazolo[1,5-a]pyridine-2-carbonyl)-1-oxa-4,9-diazaspiro[5.5]undecan-9-yl)methyl)phenethoxy)propanamide] | 79.4 nM | 0.9 | 0.398 nM | 96% | 100% |
| O=C1COc2c(CCNCCN(C(=O)CCOCCc3cccc(CN4CCC5(CC4)CN(C(=O)c4ccc(Cl)s4)CCO5)c3)C3CCCCC3)ccc(O)c2N1 [Example 106, 3-(3-((4-(5-Chlorothiophene-2-carbonyl)-1-oxa-4,9-diazaspiro[5.5]undecan-9-yl)methyl)phenethoxy)-N-cyclohexyl-N-(2-(2-(5-hydroxy-3-oxo-3,4-dihydro-2H-benzo[b][1,4]oxazin-8-yl)ethylamino)ethyl)propanamide] | 50.1 nM | 1.0 | 0.631 nM | 102% | 100% |

More lines, now with the values ahead:

| EC50 (Adrenergic β2 [1]) | β2 Intrinsic Activity (Adrenergic β2 [1]) | IC50 [2] | percent of formoterol maximum response at 1 µM (Adrenergic β2 [3]) | inhibition at 1 µM [4] | SMILES |
| --- | --- | --- | --- | --- | --- |
| 79.4 nM | 0.9 | 1.26 nM | 87% | 100% | Cc1ccoc1C(=O)N1CCOC2(CCN(Cc3cccc(CCOCCC(=O)N(CCNCCc4ccc(O)c5c4OCC(=O)N5)C4CCCCC4)c3)CC2)C1 [Example 159, N-Cyclohexyl-N-(2-(2-(5-hydroxy-3-oxo-3,4-dihydro-2H-benzo[b][1,4]oxazin-8-yl)ethylamino)ethyl)-3-(3-((4-(3-methylfuran-2-carbonyl)-1-oxa-4,9-diazaspiro[5.5]undecan-9-yl)methyl)phenethoxy)propanamide] |
| 63.1 nM | 1.0 | 0.316 nM | 86% | 100% | CCCCc1nc(C(=O)N2CCOC3(CCN(Cc4cccc(CCOCCC(=O)N(CCNCCc5ccc(O)c6c5OCC(=O)N6)C5CCCCC5)c4)CC3)C2)cs1 [Example 175, 3-(3-((4-(2-Butylthiazole-4-carbonyl)-1-oxa-4,9-diazaspiro[5.5]undecan-9-yl)methyl)phenethoxy)-N-cyclohexyl-N-(2-(2-(5-hydroxy-3-oxo-3,4-dihydro-2H-benzo[b][1,4]oxazin-8-yl)ethylamino)ethyl)propanamide] |
| 126 nM | 1.0 | 0.501 nM | 90% | 99% | O=C1COc2c(CCNCCN(C(=O)CCOCCc3cccc(CN4CCC5(CC4)CN(C(=O)c4ccc(C(F)(F)F)cn4)CCO5)c3)C3CCCCC3)ccc(O)c2N1 [Example 149, N-Cyclohexyl-N-(2-(2-(5-hydroxy-3-oxo-3,4-dihydro-2H-benzo[b][1,4]oxazin-8-yl)ethylamino)ethyl)-3-(3-((4-(5-(trifluoromethyl)picolinoyl)-1-oxa-4,9-diazaspiro[5.5]undecan-9-yl)methyl)phenethoxy)propanamide] |
